18 compounds from patent US5064954A, “Process for producing halomethylcarbapenems” (Shionogi & Co., Ltd., priority 1990, dated 1991) can be followed below.

Each structure is given as a SMILES string. Converted amounts (≈) assume the structure as drawn.

Holding throughout (assay type): cell-based
One assay relates to S. aureus Smith. Nature of the assay: MIC against S. aureus Smith. The settings on record: Staphylococcus aureus. An excerpt: |MIC: μg/ml (inoculum size = 10^5 /ml) |S = S. aureus Smith
The next assay has as its system E. coli EC-14. Nature of the assay: MIC against E. coli EC-14. The settings on record: Escherichia coli, EC14. From the text: |MIC: μg/ml (inoculum size = 10^5 /ml) |E = E. coli EC-14
Another assay deals with Ps. aeruginosa SR-24. Nature of the assay: MIC against Ps. aeruginosa SR-24. To be noted: Pseudomonas aeruginosa, SR24. An excerpt: |MIC: μg/ml (inoculum size = 10^5 /ml) |P = Ps. aeruginosa SR-24
The mark [1] stands for this setting: Table I, S = S. aureus Smith, inoculum size = 10^5 /ml.
Setting [2] is: Table I, E = E. coli EC-14, inoculum size = 10^5 /ml.
The mark [3] stands for this setting: Table I, P = Ps. aeruginosa SR-24, inoculum size = 10^5 /ml.
Where [4] appears, read: Table III, S (key, unit and inoculum given only in Table I).
The mark [5] stands for this setting: Table III, E (key, unit and inoculum given only in Table I).
Where [6] appears, read: Table III, P (key, unit and inoculum given only in Table I).

Consider `CC(O)[C@H]1C(=O)N2C(C(=O)[O-])=C(C[n+]3cccc(C(N)=O)c3)[C@H](C)[C@H]12` (stereo partly drawn) [Table I No. 14], for which the MIC against S. aureus Smith (setting [1]) was 0.025 mg/L (≈ 0.0724 µM); against E. coli EC-14 (setting [2]) it was 0.39 mg/L (≈ 1.13 µM); in the assay on Ps. aeruginosa SR-24 (setting [3]), 1.56 mg/L (≈ 4.52 µM).

For `CC(O)[C@H]1C(=O)N2C(C(=O)[O-])=C(C[n+]3ccc(N)c(N)c3)[C@H](C)[C@H]12` (stereo partly drawn) [Table I No. 21], the MIC with S. aureus Smith (setting [1]) was determined as 0.0125 mg/L (≈ 0.0376 µM); against E. coli EC-14 (setting [2]) it was 0.2 mg/L (≈ 0.602 µM); with Ps. aeruginosa SR-24 (setting [3]) it was 3.13 mg/L (≈ 9.42 µM).

For the compound `CC(O)[C@H]1C(=O)N2C(C(=O)[O-])=C(C[n+]3cccc(CNC=O)c3)[C@H](C)[C@H]12` (stereo partly drawn) [Table I No. 11], the MIC against S. aureus Smith (setting [1]) came out at 0.05 mg/L (≈ 0.139 µM); in the assay on E. coli EC-14 (setting [2]), 0.78 mg/L (≈ 2.17 µM); in the assay on Ps. aeruginosa SR-24 (setting [3]), 3.13 mg/L (≈ 8.71 µM).

Regarding `COc1ccc[n+](CC2=C(C(=O)[O-])N3C(=O)[C@H](C(C)O)[C@H]3[C@H]2C)c1` (stereo partly drawn) [Table I No. 24], the MIC against S. aureus Smith (setting [1]) was determined as 0.025 mg/L (≈ 0.0752 µM); with E. coli EC-14 (setting [2]) it was 0.39 mg/L (≈ 1.17 µM); in the assay with Ps. aeruginosa SR-24 (setting [3]), 3.13 mg/L (≈ 9.42 µM).

As to `CC(O)[C@H]1C(=O)N2C(C(=O)O)=C(CN3CCC(N)C3)[C@H](C)[C@H]12` (stereo partly drawn) [Table III No. 3], the results for the MIC against S. aureus Smith (setting [4]), in the assay with E. coli EC-14 (setting [5]) and with Ps. aeruginosa SR-24 (setting [6]) were 0.05 mg/L (≈ 0.162 µM), 0.78 mg/L (≈ 2.52 µM) and 3.13 mg/L (≈ 10.1 µM), respectively.

With `CC(O)[C@H]1C(=O)N2C(C(=O)[O-])=C(CN[n+]3ccccc3)[C@H](C)[C@H]12` (stereo partly drawn) [Table III No. 1], the MIC with S. aureus Smith (setting [4]) turned out to be 0.025 mg/L (≈ 0.0788 µM); with E. coli EC-14 (setting [5]), 0.39 mg/L (≈ 1.23 µM); in the assay with Ps. aeruginosa SR-24 (setting [6]), 12.5 mg/L (≈ 39.4 µM).

As to `CC(O)[C@H]1C(=O)N2C(C(=O)[O-])=C(C[n+]3ccc(C(N)=O)cc3)[C@H](C)[C@H]12` (stereo partly drawn) [Table I No. 15], the MIC with S. aureus Smith (setting [1]) stood at 0.025 mg/L (≈ 0.0724 µM); against E. coli EC-14 (setting [2]), 0.39 mg/L (≈ 1.13 µM); against Ps. aeruginosa SR-24 (setting [3]), 1.56 mg/L (≈ 4.52 µM).

In the case of `CC(O)[C@H]1C(=O)N2C(C(=O)[O-])=C(C[n+]3cccc(F)c3)[C@H](C)[C@H]12` (stereo partly drawn) [Table I No. 28], the minimum inhibitory concentration (MIC) against S. aureus Smith (setting [1]) is 0.025 mg/L (≈ 0.078 µM); against E. coli EC-14 (setting [2]), 0.39 mg/L (≈ 1.22 µM); with Ps. aeruginosa SR-24 (setting [3]), 3.13 mg/L (≈ 9.77 µM).

`CC(O)[C@H]1C(=O)N2C(C(=O)[O-])=C(C[n+]3ccsc3N)[C@H](C)[C@H]12` (stereo partly drawn) [Table I No. 2]: the MIC with S. aureus Smith (setting [1]) came to 0.0125 mg/L (≈ 0.0387 µM); in the assay with E. coli EC-14 (setting [2]), 0.78 mg/L (≈ 2.41 µM); in the assay with Ps. aeruginosa SR-24 (setting [3]), 6.25 mg/L (≈ 19.3 µM).

`CC(O)[C@H]1C(=O)N2C(C(=O)[O-])=C(C[n+]3cccc(CN)c3)[C@H](C)[C@H]12` (stereo partly drawn) [Table I No. 9]: the figures for the MIC with S. aureus Smith (setting [1]), in the assay on E. coli EC-14 (setting [2]) and against Ps. aeruginosa SR-24 (setting [3]) were 0.05 mg/L (≈ 0.151 µM), 0.78 mg/L (≈ 2.35 µM) and 3.13 mg/L (≈ 9.45 µM), respectively.

In the case of `CC(O)[C@H]1C(=O)N2C(C(=O)[O-])=C(C[n+]3ccc(CN)cc3)[C@H](C)[C@H]12` (stereo partly drawn) [Table I No. 10], the MIC in the assay with S. aureus Smith (setting [1]) stood at 0.05 mg/L (≈ 0.151 µM); against E. coli EC-14 (setting [2]), 0.78 mg/L (≈ 2.35 µM); against Ps. aeruginosa SR-24 (setting [3]) it was 3.13 mg/L (≈ 9.45 µM).

With `Cc1ccc[n+](CC2=C(C(=O)[O-])N3C(=O)[C@H](C(C)O)[C@H]3[C@H]2C)c1` (stereo partly drawn) [Table I No. 5], the MIC against S. aureus Smith (setting [1]) turned out to be 0.025 mg/L (≈ 0.079 µM); in the assay with E. coli EC-14 (setting [2]), 0.2 mg/L (≈ 0.632 µM); with Ps. aeruginosa SR-24 (setting [3]) it was 1.56 mg/L (≈ 4.93 µM).

Regarding `Cc1cccc[n+]1CC1=C(C(=O)[O-])N2C(=O)[C@H](C(C)O)[C@H]2[C@H]1C` (stereo partly drawn) [Table I No. 4], the MIC was 0.025 mg/L (≈ 0.079 µM) with S. aureus Smith (setting [1]), 0.2 mg/L (≈ 0.632 µM) in the assay with E. coli EC-14 (setting [2]) and 3.13 mg/L (≈ 9.89 µM) in the assay with Ps. aeruginosa SR-24 (setting [3]).

In the case of `CCC(=O)c1cc[n+](CC2=C(C(=O)[O-])N3C(=O)[C@H](C(C)O)[C@H]3[C@H]2C)cc1` (stereo partly drawn) [Table I No. 13], the results for the MIC with S. aureus Smith (setting [1]), against E. coli EC-14 (setting [2]) and against Ps. aeruginosa SR-24 (setting [3]) were 0.05 mg/L (≈ 0.14 µM), 0.76 mg/L (≈ 2.12 µM) and 3.13 mg/L (≈ 8.73 µM), respectively.

Turning to `CC(O)[C@H]1C(=O)N2C(C(=O)[O-])=C(C[n+]3ccc(-c4ncco4)cc3)[C@H](C)[C@H]12` (stereo partly drawn) [Table I No. 17], the figures for the minimal inhibitory concentration (MIC) in the assay with S. aureus Smith (setting [1]), against E. coli EC-14 (setting [2]) and in the assay with Ps. aeruginosa SR-24 (setting [3]) were 0.025 mg/L (≈ 0.0677 µM), 0.2 mg/L (≈ 0.541 µM) and 3.13 mg/L (≈ 8.47 µM), respectively.

For `CC(O)[C@H]1C(=O)N2C(C(=O)[O-])=C(C[n+]3ccc(N)cc3)[C@H](C)[C@H]12` (stereo partly drawn) [Table I No. 20], the figures for the MIC with S. aureus Smith (setting [1]), with E. coli EC-14 (setting [2]) and in the assay with Ps. aeruginosa SR-24 (setting [3]) were 0.0125 mg/L (≈ 0.0394 µM), 0.2 mg/L (≈ 0.63 µM) and 6.25 mg/L (≈ 19.7 µM), respectively.

Consider `COc1cc[n+](CC2=C(C(=O)[O-])N3C(=O)[C@H](C(C)O)[C@H]3[C@H]2C)cc1` (stereo partly drawn) [Table I No. 25], for which the MIC against S. aureus Smith (setting [1]) amounted to 0.025 mg/L (≈ 0.0752 µM); in the assay on E. coli EC-14 (setting [2]), 0.39 mg/L (≈ 1.17 µM); against Ps. aeruginosa SR-24 (setting [3]), 3.13 mg/L (≈ 9.42 µM).

As to `CC(O)[C@H]1C(=O)N2C(C(=O)O)=C(CN3CCCC3)[C@H](C)[C@H]12` (stereo partly drawn) [Table III No. 2], the MIC was 0.0125 mg/L (≈ 0.0425 µM) against S. aureus Smith (setting [4]), 0.39 mg/L (≈ 1.32 µM) with E. coli EC-14 (setting [5]) and 12.5 mg/L (≈ 42.5 µM) against Ps. aeruginosa SR-24 (setting [6]).
